From ChEMBL document CHEMBL4011650, “3-Hydroxy-1H-quinazoline-2,4-dione as a New Scaffold To Develop Potent and Selective Inhibitors of the Tumor-Associated Carbonic Anhydrases IX and XII” (J Med Chem, 2017)

Molecular target: Carbonic anhydrase 1 (Homo sapiens, UniProt P00915)
Experiment: Inhibition of recombinant human carbonic anhydrase 1 preincubated for 15 mins prior to testing by phenol red based stopped-flow CO2 hydration assay

Carbonic anhydrase 1, sequence (P00915 whole entry): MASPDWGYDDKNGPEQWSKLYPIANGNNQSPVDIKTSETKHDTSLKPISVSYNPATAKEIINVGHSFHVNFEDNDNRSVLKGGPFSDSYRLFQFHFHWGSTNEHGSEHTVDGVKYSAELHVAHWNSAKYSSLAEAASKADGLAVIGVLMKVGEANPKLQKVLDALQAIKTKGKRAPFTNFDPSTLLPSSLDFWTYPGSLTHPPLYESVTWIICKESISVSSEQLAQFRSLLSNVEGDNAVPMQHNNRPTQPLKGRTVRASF

| SMILES | Ki [µM] |
| --- | --- |
| O=C(O)c1ccc(C(=O)Nc2cc3c(=O)n(O)c(=O)[nH]c3cc2Cl)cc1 | > 10 |
| O=C(Nc1cc2c(=O)n(O)c(=O)[nH]c2cc1Cl)c1ccccc1 | > 10 |
| O=C(Nc1ccccc1)Nc1ccc2[nH]c(=O)n(O)c(=O)c2c1 | > 10 |
| O=C(O)CCC(=O)Nc1cc2c(=O)n(O)c(=O)[nH]c2cc1Cl | > 10 |
| O=C(O)CCC(=O)Nc1ccc2[nH]c(=O)n(O)c(=O)c2c1 | > 10 |
| O=c1[nH]c2cc(C(F)(F)F)c(-n3cnnc3)cc2c(=O)n1O | > 10 |
| Nc1cc2c(=O)n(O)c(=O)[nH]c2cc1Cl | > 10 |
| O=c1[nH]c2ccccc2c(=O)n1O | > 10 |
| O=c1[nH]c2cc(Cl)ccc2c(=O)n1O | > 10 |
| COn1c(=O)[nH]c2cc(Cl)ccc2c1=O | > 10 |
| O=c1[nH]c2cc(Cl)c(-n3cccc3)cc2c(=O)n1O | > 10 |
| O=c1[nH]c2cc(C(F)(F)F)ccc2c(=O)n1O | > 10 |
| O=C(O)c1ccccc1C(=O)Nc1cc2c(=O)n(O)c(=O)[nH]c2cc1Cl | > 10 |
| O=c1[nH]c2cc(Cl)c(-n3cnnc3)cc2c(=O)n1O | > 10 |
| O=C(Nc1ccccc1)Nc1cc2c(=O)n(O)c(=O)[nH]c2cc1Cl | > 10 |

Molecular target: Carbonic anhydrase 9 (Homo sapiens, UniProt Q16790)
Description: Inhibition of recombinant human carbonic anhydrase 9 preincubated for 15 mins prior to testing by phenol red based stopped-flow CO2 hydration assay

| SMILES | Ki [µM] |
| --- | --- |
| O=C(O)c1ccc(C(=O)Nc2cc3c(=O)n(O)c(=O)[nH]c3cc2Cl)cc1 | 0.0079 |
| O=C(Nc1cc2c(=O)n(O)c(=O)[nH]c2cc1Cl)c1ccccc1 | 0.0588 |
| O=C(Nc1ccccc1)Nc1ccc2[nH]c(=O)n(O)c(=O)c2c1 | 0.301 |
| O=C(O)CCC(=O)Nc1cc2c(=O)n(O)c(=O)[nH]c2cc1Cl | 0.007 |
| O=C(O)CCC(=O)Nc1ccc2[nH]c(=O)n(O)c(=O)c2c1 | 0.0648 |
| Nc1cc2c(=O)n(O)c(=O)[nH]c2cc1Cl | 0.0431 |
| O=c1[nH]c2ccccc2c(=O)n1O | 0.48 |
| O=c1[nH]c2cc(Cl)ccc2c(=O)n1O | 0.0697 |
| COn1c(=O)[nH]c2cc(Cl)ccc2c1=O | 0.208 |
| O=c1[nH]c2cc(Cl)c(-n3cccc3)cc2c(=O)n1O | 0.0083 |
| O=c1[nH]c2cc(C(F)(F)F)ccc2c(=O)n1O | 0.0082 |
| O=C(O)c1ccccc1C(=O)Nc1cc2c(=O)n(O)c(=O)[nH]c2cc1Cl | 0.0081 |
| O=c1[nH]c2cc(Cl)c(-n3cnnc3)cc2c(=O)n1O | 0.0333 |
| O=C(Nc1ccccc1)Nc1cc2c(=O)n(O)c(=O)[nH]c2cc1Cl | 0.0428 |

Molecular target: Carbonic anhydrase 2 (Homo sapiens, UniProt P00918)
Experiment: Inhibition of recombinant human carbonic anhydrase 2 preincubated for 15 mins prior to testing by phenol red based stopped-flow CO2 hydration assay

| SMILES | Ki [µM] |
| --- | --- |
| O=C(O)c1ccc(C(=O)Nc2cc3c(=O)n(O)c(=O)[nH]c3cc2Cl)cc1 | > 10 |
| O=C(Nc1cc2c(=O)n(O)c(=O)[nH]c2cc1Cl)c1ccccc1 | > 10 |
| O=C(Nc1ccccc1)Nc1ccc2[nH]c(=O)n(O)c(=O)c2c1 | > 10 |
| O=C(O)CCC(=O)Nc1cc2c(=O)n(O)c(=O)[nH]c2cc1Cl | > 10 |
| O=C(O)CCC(=O)Nc1ccc2[nH]c(=O)n(O)c(=O)c2c1 | > 10 |
| O=c1[nH]c2cc(C(F)(F)F)c(-n3cnnc3)cc2c(=O)n1O | > 10 |
| Nc1cc2c(=O)n(O)c(=O)[nH]c2cc1Cl | > 10 |
| O=c1[nH]c2ccccc2c(=O)n1O | > 10 |
| O=c1[nH]c2cc(Cl)ccc2c(=O)n1O | > 10 |
| COn1c(=O)[nH]c2cc(Cl)ccc2c1=O | > 10 |
| O=c1[nH]c2cc(Cl)c(-n3cccc3)cc2c(=O)n1O | > 10 |
| O=c1[nH]c2cc(C(F)(F)F)ccc2c(=O)n1O | > 10 |
| O=C(O)c1ccccc1C(=O)Nc1cc2c(=O)n(O)c(=O)[nH]c2cc1Cl | > 10 |
| O=c1[nH]c2cc(Cl)c(-n3cnnc3)cc2c(=O)n1O | > 10 |
| O=C(Nc1ccccc1)Nc1cc2c(=O)n(O)c(=O)[nH]c2cc1Cl | > 10 |
